In brackets after ≈: the same amount, converted by molar mass. Where a SMILES comes first, the peptide text is derived from it. Bridges are numbered along the chain shown (N, C = ends). Roman numbers before positions name the chains, in order.
Tests used:
Escherichia coli [1] = assay: Antibacterial activity against Escherichia coli TG1 incubated for 12 hrs by microdilution method; format: functional
Klebsiella pneumoniae [2] = assay: Antibacterial activity against Klebsiella pneumoniae ATCC43816 incubated for 12 hrs by microdilution method; format: functional
Erythrocyte = assay: Hemolytic activity in human RBC assessed as hemolysis at ~15 uM incubated for 2 hrs by absorbance based plate reader analysis; format: toxicity, cell-based
Staphylococcus aureus = assay: Antibacterial activity against Staphylococcus aureus USA300 incubated for 12 hrs by microdilution method; format: functional
Enterococcus faecalis = assay: Antibacterial activity against Enterococcus faecalis 51299 incubated for 12 hrs by microdilution method; format: functional
Pseudomonas aeruginosa = assay: Antibacterial activity against Pseudomonas aeruginosa ATCC 27853 incubated for 12 hrs by microdilution method; format: functional
Klebsiella pneumoniae [3] = assay: Antibacterial activity against colistin-resistant Klebsiella pneumoniae incubated for 12 hrs by microdilution method; format: functional
Escherichia coli [4] = assay: Antibacterial activity against Escherichia coli clinical isolate LC711/14 incubated for 12 hrs by microdilution method; format: functional
[5] = Stability of compound in human serum at 180 uM measured after 24 hrs by HPLC-MS analysis; format: ADME, cell-free
[6] = Stability of compound in human serum at 180 uM measured after 4 hrs by HPLC-MS analysis; format: ADME, cell-free

Stability [5]	Stability [6]	Molecule	MIC (Escherichia coli [1]) [µM]	also measured
–	–	CC[C@H](C)[C@H](NC(=O)[C@H](CO)NC(=O)[C@H](CCCCN)NC(=O)[C@H](CC(C)C)NC(=O)[C@H](CCCCN)NC(=O)[C@@H](N)CC(C)C)C(=O)N[C@H](C(=O)N[C@@H](CO)C(=O)N[C@@H](Cc1c[nH]c2ccccc12)C(=O)NCCCC[C@@H]1NC(=O)[C@H](Cc2c[nH]c3ccccc23)NC(=O)[C@H](CO)NC(=O)[C@@H](NC(=O)[C@@H](NC(=O)[C@H](CO)NC(=O)[C@H](CCCCN)NC(=O)[C@H](CC(C)C)NC(=O)[C@H](CCCCN)NC(=O)[C@@H](N)CC(C)C)[C@@H](C)CC)C(C)NCCCC[C@H](NC(=O)[C@H](CC(C)C)NC(=O)[C@H](CCCCN)NC(=O)[C@@H](N)CC(C)C)C(=O)N[C@@H](CO)C(=O)N[C@@H]([C@@H](C)CC)C(=O)N[C@@H](C(C)C)C(=O)N[C@@H](CO)C(=O)N[C@@H](Cc2c[nH]c3ccccc23)C(=O)NCCCC[C@H](NC(=O)[C@H](Cc2c[nH]c3ccccc23)NC(=O)[C@H](CO)NC(=O)[C@@H](NC(=O)[C@@H](NC(=O)[C@H](CO)NC(=O)[C@H](CCCCN)NC(=O)[C@H](CC(C)C)NC(=O)[C@H](CCCCN)NC(=O)[C@@H](N)CC(C)C)[C@@H](C)CC)C(C)C)C(=O)N[C@H](C(N)=O)CCCCNC1=O)C(C)C (some centres undefined)	12.5 (≈ 57.6 µg/mL)	–
–	–	CC[C@H](C)[C@H](N)C(=O)N[C@@H](CC(N)=O)C(=O)N[C@@H](CC(C)C)C(=O)N[C@@H](CCCCN)C(=O)N[C@@H](CCCCN)C(=O)N[C@@H](CC(C)C)C(=O)N[C@@H](C)C(=O)N[C@@H](CCCCN)C(=O)N[C@@H](CC(C)C)C(=O)NCCCC[C@H](NC(=O)[C@H](CC(C)C)NC(=O)[C@H](CCCCN)NC(=O)[C@H](C)NC(=O)[C@H](CC(C)C)NC(=O)[C@H](CCCCN)NC(=O)[C@H](CCCCN)NC(=O)[C@H](CC(C)C)NC(=O)[C@H](CC(N)=O)NC(=O)[C@@H](N)[C@@H](C)CC)C(=O)NCCCC[C@H](NC(=O)[C@H](CCCCNC(=O)[C@H](CC(C)C)NC(=O)[C@H](CCCCN)NC(=O)[C@H](C)NC(=O)[C@H](CC(C)C)NC(=O)[C@H](CCCCN)NC(=O)[C@H](CCCCN)NC(=O)[C@H](CC(C)C)NC(=O)[C@H](CC(N)=O)NC(=O)[C@@H](N)[C@@H](C)CC)NC(=O)[C@H](CC(C)C)NC(=O)[C@H](CCCCN)NC(=O)[C@H](C)NC(=O)[C@H](CC(C)C)NC(=O)[C@H](CCCCN)NC(=O)[C@H](CCCCN)NC(=O)[C@H](CC(C)C)NC(=O)[C@H](CC(N)=O)NC(=O)[C@@H](N)[C@@H](C)CC)C(N)=O	0.7 (≈ 3.14 µg/mL)	MIC (Klebsiella pneumoniae [2]): 12 µM (≈ 53.9 µg/mL); Activity (Erythrocyte): Toxic; MIC (Staphylococcus aureus): > 25 µM; MIC (Enterococcus faecalis): > 25 µM; MIC (Pseudomonas aeruginosa): 3 µM (≈ 13.5 µg/mL); MIC (Klebsiella pneumoniae [3]): 6 µM (≈ 26.9 µg/mL); MIC (Escherichia coli [4]): 6 µM (≈ 26.9 µg/mL)
–	–	CC(C)C[C@H](NC(=O)[C@@H](NC(=O)[C@@H](NC(=O)[C@@H](N)CO)[C@@H](C)O)C(C)C)C(=O)N[C@H](C(=O)N[C@@H](CO)C(=O)N[C@@H](CCCCN)C(=O)N[C@@H](Cc1ccc(O)cc1)C(=O)N[C@@H](CCCNC(=N)N)C(=O)NCCCC[C@H](NC(=O)[C@H](CCCNC(=N)N)NC(=O)[C@H](Cc1ccc(O)cc1)NC(=O)[C@H](CCCCN)NC(=O)[C@H](CO)NC(=O)[C@@H](NC(=O)[C@H](CC(C)C)NC(=O)[C@@H](NC(=O)[C@@H](NC(=O)[C@@H](N)CO)[C@@H](C)O)C(C)C)[C@@H](C)O)C(=O)NCCCC[C@H](NC(=O)[C@H](CCCCNC(=O)[C@H](CCCNC(=N)N)NC(=O)[C@H](Cc1ccc(O)cc1)NC(=O)[C@H](CCCCN)NC(=O)[C@H](CO)NC(=O)[C@@H](NC(=O)[C@H](CC(C)C)NC(=O)[C@@H](NC(=O)[C@@H](NC(=O)[C@@H](N)CO)[C@@H](C)O)C(C)C)[C@@H](C)O)NC(=O)[C@H](CCCNC(=N)N)NC(=O)[C@H](Cc1ccc(O)cc1)NC(=O)[C@H](CCCCN)NC(=O)[C@H](CO)NC(=O)[C@@H](NC(=O)[C@H](CC(C)C)NC(=O)[C@@H](NC(=O)[C@@H](NC(=O)[C@@H](N)CO)[C@@H](C)O)C(C)C)[C@@H](C)O)C(N)=O)[C@@H](C)O (HELM PEPTIDE1{S.T.V.L.T.S.K.Y.R.K.K.[am]}|PEPTIDE2{S.T.V.L.T.S.K.Y.R.K}|PEPTIDE3{S.T.V.L.T.S.K.Y.R}|PEPTIDE4{S.T.V.L.T.S.K.Y.R}$PEPTIDE1,PEPTIDE4,10:R3-9:R2|PEPTIDE1,PEPTIDE2,11:R3-10:R2|PEPTIDE2,PEPTIDE3,10:R3-9:R2$$$V2.0)	25 (≈ 114 µg/mL)	–
Unstable	Stable	H-GRFKRFRKKL-OH	–	–
Unstable	Unstable	H-KKLLGKNWKLM-OH	–	–
Unstable	Unstable	H-LLKKVLKAAAK-OH	–	–
Unstable	Stable	H-TLLKKVLKAAAK-OH	–	–
–	–	I: H-ALLKRIKTLLKK-NH2 / II: H-ALLKRIKTLLK / III: H-ALLKRIKTLL / IV: H-ALLKRIKTLL (amide I:11-IV:C, I:12-II:C, II:11-III:C)	25	–
